Results taken from patent US9982073B2, “Homopolymers of terpenoid alcohols and their uses” (priority 2015, dated 2018).

What was measured:
Assay type in all cases: cell-based
Saccharomyces cerevisiae = test: Disk inhibition testing, S. cerevisiae; details: 24 hours at 30° C.; for zone of inhibition at 100 µg/disc: Saccharomyces cerevisiae, 100 μg sample per disk, NI = no inhibition, read-out: Diameter of zone of growth inhibition, S. Cerevisiae
Experimental: (§1) Plates of Sabourad Dextrose Agar (Difco) and tubes of Malt Extract Broth (20 mL/tube) were prepared according to manufacturer direction using aseptic techniques. Fungal broths of Saccharomyces cerevisiae and Candida albicans were prepared in a tissue culture hood by transferring frozen stock culture (−70° C. freezer, prepared from ATCC bought strains) of the given fungi to the broth tube. The S. cerevisiae culture tubes were incubated for 48 hours at 30° C. and the C. albicans culture tubes were incubated for 48 hours at 37° C.
(§2) Each sample (˜15 mg) was dissolved in a solvent (3.000 mL of tetrahydrofuran or 3.000 mL distilled water) depending on the sample's solubility. The sample (20 μL of sample solution or 100 μg of sample was then transferred to a sterile filter paper disk. The disk was then allowed to dry so that all solvent was evaporated and 100 μg of sample remained on the disk.
Plates of Sabourad Dextrose Agar (Difco) were prepared according to manufacture directions using aseptic techniques. The fungal agar plates were prepared using the culture broth of S. cerevisiae, C. albicans, A. fumigatus or A. niger as prepared above after the incubation period. In a tissue culture hood, the fungal culture broth solution (200 μL) was transferred to each Sabourad Dextrose Agar plate and spread evenly over the agar and allowed to dry for a minimum of 20 minutes. Four sample disks or control antifungal disks were then places onto each agar plate, one in the center of each quadrant of the plate. The sample disks were prepared as described above and the antifungal disks were pre-made disks of 20 μg of amphotericin B.
(§3) The C. albicans and A. fumigfatus plates were incubated for 24 hours at 37° C., the A. niger plates were incubated for 48 hours at 25° C. and the S. cerevisiae plates were incubated for 24 hours at 30° C. The plates were then observed for zones of fungal growth inhibition. Where a zone of growth inhibition was observed, the diameter of the ring was measured to the closest 0.1 mm using a caliper. […]

Candida albicans = test: Disk inhibition testing, C. albicans; details: 24 hours at 37° C.
Experimental: as §1, §2
Plates of Sabourad Dextrose Agar (Difco) were prepared according to manufacture directions using aseptic techniques. […]
as §3, with “The plates were then observed for zones of fungal growth inhibition.” left out

Aspergillus fumigatus = test: Disk inhibition testing, A. fumigatus; details: pre-made antifungal disk 20 μg; 24 hours at 37° C.
Experimental: (§4) Fungal broths of Aspergillus fumigatus and Aspergillus niger were prepared in a tissue culture hood by transferring the frozen stock culture (−70° C. freezer) of the given fungi to a plate of Sabourad Dextrose Agar. The A. fumigatus culture plates were incubated for 48 hours at 37° C. and the A. niger culture plates were incubated for 72 hours at 25° C. The fungal broth was prepared by using a cork borer to add 2-3 circular pieces of agar containing active fungal growth to distilled water (4.0 mL). A tissue homogenizer was then used to grind the agar and create a suspension of fungal spores.
as §2, with “the disk. […]” for “the disk.”
as §3, with “The plates were then observed for zones of fungal growth inhibition.” left out

Aspergillus niger = test: Disk inhibition testing, A. niger; details: 48 hours at 25° C.
Experimental: as §4
as §2, with “the disk. […]” for “the disk.”
as §3, with “The plates were then observed for zones of fungal growth inhibition.” left out

Pseudomonas aeruginosa = test: Disk inhibition testing, P. aeruginosa; details: 24 hours at 37° C.
Experimental: (§5) Tubes of Tryptic Soy Broth (10 mL/tube,) were prepared according to manufacturer directions (Difco) using aseptic techniques. Bacterial broth of Escherichia coli, Staphylococcus aureus, Pseudomonas aeruginosa, Proteus hauseri, and Bacillus cereus were prepared in a tissue culture hood by transferring frozen stock culture (−70° C. freezer, prepared from ATCC bacterial quality control strains) of the given bacteria to the broth tube. The E. coli, S. aureus, P. aeruginosa, and P. hauseri culture tubes were then incubated for 24 hours at 37° C. and the B. cereus culture tubes were incubated at 30° C. for 24 hours.
as §2
(§6) Plates of Mueller Hinton II Agar (Difco) were prepared according to manufacturer directions using aseptic techniques. The bacterial agar plates were prepared using the bacterial culture broth of E. coli, S. aureus, P. aeruginosa, P. hauseri, or B. cereus as prepared above after the incubation period. In a tissue culture hood, the given bacterial culture broth solution (300 μL) was transferred to each Mueller Hinton Agar II plate and spread evenly over the agar and allowed to dry for a minimum of 20 minutes. Four sample disks (as prepared above) or control antibiotic disks (pre-made disks) were then places onto each agar plate, one in the center of each quadrant of the plate.
(§7) The E. coli, S. aureus, P. aeruginosa, and P. hauseri, plates were incubated for 24 hours at 37° C. and the B. cereus plates were incubated for 24 hours at 30° C. The plates were then observed for zones of bacterial growth inhibition. Where a zone of growth inhibition was observed, the diameter of the ring was measured to the closest 0.1 mm using a caliper. […] The absence of a uniform bacterial lawn was ruled a failed test and in this case the test would need to be repeated in order to achieve meaningful results.

Escherichia coli = test: Disk inhibition testing, E. coli; details: 24 hours at 37° C.; for zone of inhibition at 100 µg/disc: Escherichia coli, 100 μg sample per disk, NI = no inhibition, read-out: Diameter of zone of growth inhibition, E. Coli
Experimental: as §5, §2, §6, §7

Proteus hauseri = test: Disk inhibition testing, P. hauseri; details: 24 hours at 37° C.; for zone of inhibition at 100 µg/disc: Proteus hauseri, 100 μg sample per disk, NI = no inhibition, read-out: Diameter of zone of growth inhibition, P. Hauseri
Experimental: as §5, §2, §6, §7

Staphylococcus aureus = test: Disk inhibition testing, S. aureus; details: 24 hours at 37° C.; for zone of inhibition at 100 µg/disc: Staphylococcus aureus, 100 μg sample per disk, NI = no inhibition, read-out: Diameter of zone of growth inhibition, S. Aureus
Experimental: as §5, §2, §6, §7

Bacillus cereus = test: Disk inhibition testing, B. cereus; details: pre-made control disk 30 μg; 24 hours at 30° C.
Experimental: as §5, §2
Plates of Mueller Hinton II Agar (Difco) were prepared according to manufacturer directions using aseptic techniques. […]
The E. coli, S. aureus, P. aeruginosa, and P. hauseri, plates were incubated for 24 hours at 37° C. and the B. cereus plates were incubated for 24 hours at 30° C. […] Where a zone of growth inhibition was observed, the diameter of the ring was measured to the closest 0.1 mm using a caliper. […]

C[C@@H]1[C@H](O)[C@@H](C)/C=C/C=C/C=C/C=C/C=C/C=C/C=C/[C@H](O[C@@H]2O[C@H](C)[C@@H](O)[C@H](N)[C@@H]2O)C[C@@H]2O[C@](O)(C[C@@H](O)C[C@@H](O)[C@H](O)CC[C@@H](O)C[C@@H](O)CC(=O)O[C@H]1C)C[C@H](O)[C@H]2C(=O)O [Amphotericin B, amphotericin B]
Diameter of zone of growth inhibition, S. Cerevisiae (Saccharomyces cerevisiae; pre-made antifungal disk 20 μg): 10.2 mm
Diameter of zone of growth inhibition, C. Albicans (Candida albicans; pre-made antifungal disk 20 μg): 12.9 mm
Diameter of zone of growth inhibition, A. Fumigratus (Aspergillus fumigatus): 11.4 mm
Diameter of zone of growth inhibition, A. Niger (Aspergillus niger; pre-made antifungal disk 20 μg): 9.7 mm

CC1(C)S[C@@H]2[C@H](NC(=O)[C@H](N)c3ccccc3)C(=O)N2[C@H]1C(=O)O [Ampicillin]
Diameter of zone of growth inhibition, P. Aeriginosa (Pseudomonas aeruginosa; pre-made control disk 10 μg, NI = no inhibition): 9.1 mm
Diameter of zone of growth inhibition, E. Coli (Escherichia coli; pre-made control disk 10 μg): 19.7 mm
Diameter of zone of growth inhibition, P. Hauseri (Proteus hauseri; pre-made control disk 10 μg): 7.2 mm

O=C(N[C@H](CO)[C@H](O)c1ccc([N+](=O)[O-])cc1)C(Cl)Cl [Chloramphenicol]
Diameter of zone of growth inhibition, S. Aureus (Staphylococcus aureus; pre-made control disk 30 μg): 17.8 mm
Diameter of zone of growth inhibition, P. Aeriginosa (Pseudomonas aeruginosa; pre-made control disk 30 μg): 18.7 mm
Diameter of zone of growth inhibition, E. Coli (Escherichia coli; pre-made control disk 30 μg): 24.4 mm
Diameter of zone of growth inhibition, P. Hauseri (Proteus hauseri; pre-made control disk 30 μg): 16.7 mm
Diameter of zone of growth inhibition, B. Cereus (Bacillus cereus): 15.7 mm

CC(C)=CCCC(C)CCO (centres unmarked) [Citronellol]
zone of inhibition at 100 µg/disc (Staphylococcus aureus): 5.4 mm
zone of inhibition at 100 µg/disc (Saccharomyces cerevisiae): 6.7 mm
zone of inhibition at 100 µg/disc (Escherichia coli): 8.7 mm
zone of inhibition at 100 µg/disc (Proteus hauseri): 8.8 mm

CC(C)=CCC/C(C)=C/CO [Geraniol]
zone of inhibition at 100 µg/disc (Staphylococcus aureus): 4.7 mm
zone of inhibition at 100 µg/disc (Escherichia coli): 8.5 mm
zone of inhibition at 100 µg/disc (Candida albicans; Candida albicans, 100 μg sample per disk, NI = no inhibition, read-out: Diameter of zone of growth inhibition, C. Albicans): 8.3 mm
zone of inhibition at 100 µg/disc (Aspergillus niger; Aspergillus niger, 100 μg sample per disk, NI = no inhibition, read-out: Diameter of zone of growth inhibition, A. Niger): 8.1 mm
zone of inhibition at 100 µg/disc (Proteus hauseri): 9.3 mm

C=CC(C)(O)CCC=C(C)C (centres unmarked) [Linalool]
zone of inhibition at 100 µg/disc (Saccharomyces cerevisiae): 7.3 mm
zone of inhibition at 100 µg/disc (Pseudomonas aeruginosa; Pseudomonas aeruginosa, 100 μg sample per disk, NI = no inhibition, read-out: Diameter of zone of growth inhibition, P. Aeriginosa): 7.1 mm
zone of inhibition at 100 µg/disc (Escherichia coli): 7.2 mm

CN(C)[C@@H]1C(O)=C(C(N)=O)C(=O)[C@@]2(O)C(O)=C3C(=O)c4c(O)cccc4[C@@](C)(O)[C@H]3C[C@@H]12 [Tetracycline]
Diameter of zone of growth inhibition, S. Aureus (Staphylococcus aureus; pre-made control disk 30 μg): 19.0 mm
Diameter of zone of growth inhibition, P. Aeriginosa (Pseudomonas aeruginosa; pre-made control disk 30 μg): 12.3 mm
Diameter of zone of growth inhibition, E. Coli (Escherichia coli; pre-made control disk 30 μg): 21.4 mm
Diameter of zone of growth inhibition, P. Hauseri (Proteus hauseri; pre-made control disk 30 μg): 15.9 mm
Diameter of zone of growth inhibition, B. Cereus (Bacillus cereus): 23.4 mm

Penicillin
Diameter of zone of growth inhibition, S. Aureus (Staphylococcus aureus; pre-made control disk 10 μg): 16.9 mm
Diameter of zone of growth inhibition, E. Coli (Escherichia coli; pre-made control disk 10 μg): 9.4 mm
Diameter of zone of growth inhibition, P. Hauseri (Proteus hauseri; pre-made control disk 10 μg): 8.1 mm
